Measured values from patent US10501461B2, “Tyrosine amide derivatives as Rho-kinase inhibitors” (CHIESI FARMACEUTICI S.P.A., priority 2017, dated 2019).

Legend:
Rho kinase 1 (ROCK-I) = Rho kinase 1 (ROCK-I) (Homo sapiens, UniProt Q13464); assay: In vitro Rho kinase inhibitory activity assay (ADP-Glo), Rho kinase 1; format: biochemical; conditions: 10 μM ATP, 25° C., expressed as range of activity
Method: (§1) The effectiveness of compounds of the present invention to inhibit Rho kinase activity can be determined in a 10 μl assay containing 40 mM Tris pH7.5, 20 mM MgCl2 0.1 mg/ml BSA, 50 μM DTT and 2.5 μM peptide substrate (Myelin Basic Protein) using an ADP-Glo kit (Promega). Compounds were dissolved in DMSO such that the final concentration of DMSO was 1% in the assay. All reactions/incubations are performed at 25° C. Compound (2 ul) and either Rho kinase 1 or 2 (4 μl) were mixed and incubated for 30 mins. Reactions were initiated by addition of ATP (4 μl) such that the final concentration of ATP in the assay was 10 μM. After a 1 hour incubation 10 μl of ADP-Glo Reagent was added and after a further 45 minute incubation 20 ul of Kinase Detection Buffer was added and the mixture incubated for a further 30 minutes. The luminescent signal was measured on a luminometer. […] Compounds were tested in dose-response format and the inhibition of kinase activity was calculated at each concentration of compound. To determine the IC50 (concentration of compound required to inhibit 50% of the enzyme activity) data were fit to a plot of % inhibition vs Log10 compound concentration using a sigmoidal fit with a variable slope and fixing the maximum to 100% and the minimum to 0%. To determine the Ki values the Cheng-Prusoff equation was utilized (Ki=IC50/(1+[S]/Km).

Rho kinase 2 (ROCK-II) = Rho kinase 2 (ROCK-II) (Homo sapiens, UniProt O75116); assay: In vitro Rho kinase inhibitory activity assay (ADP-Glo), Rho kinase 2; format: biochemical; conditions: 10 μM ATP, 25° C., expressed as range of activity
Method: as §1

Rho kinase 2 (ROCK-II), sequence (O75116 whole entry): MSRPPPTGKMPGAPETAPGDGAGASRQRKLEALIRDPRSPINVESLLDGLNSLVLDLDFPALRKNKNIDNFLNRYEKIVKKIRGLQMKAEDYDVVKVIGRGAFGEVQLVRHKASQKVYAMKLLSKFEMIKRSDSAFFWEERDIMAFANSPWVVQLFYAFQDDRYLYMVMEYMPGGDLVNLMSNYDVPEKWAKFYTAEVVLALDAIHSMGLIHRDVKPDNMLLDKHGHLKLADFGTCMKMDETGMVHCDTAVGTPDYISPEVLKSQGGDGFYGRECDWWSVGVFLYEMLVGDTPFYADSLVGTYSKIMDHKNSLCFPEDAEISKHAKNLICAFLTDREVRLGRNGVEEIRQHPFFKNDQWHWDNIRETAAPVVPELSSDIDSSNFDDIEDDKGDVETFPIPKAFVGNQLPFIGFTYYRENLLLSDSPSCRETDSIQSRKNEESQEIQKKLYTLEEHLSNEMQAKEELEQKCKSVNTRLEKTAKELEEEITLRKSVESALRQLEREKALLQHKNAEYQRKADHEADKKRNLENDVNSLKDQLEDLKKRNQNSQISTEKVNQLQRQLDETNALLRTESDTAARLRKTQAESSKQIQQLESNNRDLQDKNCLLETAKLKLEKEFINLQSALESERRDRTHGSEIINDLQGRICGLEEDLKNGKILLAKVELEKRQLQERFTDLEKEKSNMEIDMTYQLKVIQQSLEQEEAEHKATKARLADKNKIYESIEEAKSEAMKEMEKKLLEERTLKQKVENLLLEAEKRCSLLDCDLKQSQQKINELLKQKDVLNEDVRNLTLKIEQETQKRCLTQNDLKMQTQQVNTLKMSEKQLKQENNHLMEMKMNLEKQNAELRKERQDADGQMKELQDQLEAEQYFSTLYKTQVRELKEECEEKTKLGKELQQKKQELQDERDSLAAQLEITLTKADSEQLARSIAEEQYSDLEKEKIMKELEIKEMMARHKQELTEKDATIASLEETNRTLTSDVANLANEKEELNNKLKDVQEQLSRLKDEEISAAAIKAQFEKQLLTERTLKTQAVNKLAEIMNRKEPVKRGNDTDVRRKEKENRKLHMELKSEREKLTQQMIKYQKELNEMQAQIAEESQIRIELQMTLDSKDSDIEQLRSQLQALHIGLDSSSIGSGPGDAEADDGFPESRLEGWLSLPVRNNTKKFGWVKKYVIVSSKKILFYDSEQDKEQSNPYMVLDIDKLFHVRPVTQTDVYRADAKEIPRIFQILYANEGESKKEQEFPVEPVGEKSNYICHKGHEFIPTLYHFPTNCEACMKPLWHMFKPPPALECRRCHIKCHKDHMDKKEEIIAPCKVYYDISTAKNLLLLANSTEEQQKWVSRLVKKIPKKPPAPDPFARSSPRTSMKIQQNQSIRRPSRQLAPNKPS
Rho kinase 1 (ROCK-I), sequence (Q13464 whole entry): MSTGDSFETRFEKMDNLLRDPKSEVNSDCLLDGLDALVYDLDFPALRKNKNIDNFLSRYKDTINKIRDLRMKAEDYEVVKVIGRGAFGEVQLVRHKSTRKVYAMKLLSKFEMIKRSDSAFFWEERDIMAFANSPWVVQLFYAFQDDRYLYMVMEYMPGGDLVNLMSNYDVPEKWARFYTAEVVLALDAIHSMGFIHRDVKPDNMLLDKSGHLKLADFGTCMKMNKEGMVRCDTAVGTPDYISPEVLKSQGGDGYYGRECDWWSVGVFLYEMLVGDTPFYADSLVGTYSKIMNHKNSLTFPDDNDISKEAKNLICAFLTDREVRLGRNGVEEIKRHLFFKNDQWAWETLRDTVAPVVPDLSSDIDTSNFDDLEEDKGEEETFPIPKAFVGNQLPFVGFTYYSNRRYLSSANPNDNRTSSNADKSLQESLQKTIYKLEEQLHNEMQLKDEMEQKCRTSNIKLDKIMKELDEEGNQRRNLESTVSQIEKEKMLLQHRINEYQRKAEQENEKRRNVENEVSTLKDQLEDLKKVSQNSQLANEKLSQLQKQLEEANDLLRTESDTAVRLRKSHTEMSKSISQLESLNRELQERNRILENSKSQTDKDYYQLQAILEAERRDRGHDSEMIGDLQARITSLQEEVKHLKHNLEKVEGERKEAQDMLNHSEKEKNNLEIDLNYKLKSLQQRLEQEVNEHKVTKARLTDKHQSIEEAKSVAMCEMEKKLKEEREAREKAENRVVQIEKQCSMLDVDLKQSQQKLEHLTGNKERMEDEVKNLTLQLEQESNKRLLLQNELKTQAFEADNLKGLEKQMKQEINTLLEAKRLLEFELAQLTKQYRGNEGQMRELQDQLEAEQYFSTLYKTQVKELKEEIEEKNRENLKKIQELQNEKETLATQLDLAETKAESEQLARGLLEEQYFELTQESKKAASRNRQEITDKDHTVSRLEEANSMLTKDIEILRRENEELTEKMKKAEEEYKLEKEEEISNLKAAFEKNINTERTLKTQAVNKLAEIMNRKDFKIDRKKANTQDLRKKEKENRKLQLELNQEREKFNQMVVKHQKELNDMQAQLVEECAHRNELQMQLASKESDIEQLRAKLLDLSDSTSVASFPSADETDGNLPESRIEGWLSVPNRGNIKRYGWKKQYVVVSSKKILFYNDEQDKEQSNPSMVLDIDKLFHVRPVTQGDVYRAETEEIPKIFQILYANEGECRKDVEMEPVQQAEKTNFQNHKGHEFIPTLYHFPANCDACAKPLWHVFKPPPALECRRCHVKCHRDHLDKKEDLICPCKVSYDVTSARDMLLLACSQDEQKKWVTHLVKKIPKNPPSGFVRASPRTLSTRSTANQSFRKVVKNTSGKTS

Row | Compound | Ki (Rho kinase 1 (ROCK-I)) | Ki (Rho kinase 2 (ROCK-II))
1 | N[C@@H](Cc1ccc(Oc2ccnc3[nH]ccc23)cc1)C(=O)NC1CCOCC1 [Example 99, (S)-3-(4-((1H-pyrrolo[2,3-b]pyridin-4-yl)oxy)phenyl)-2-amino-N-(tetrahydro-2H-pyran-4-yl)propanamide] | 3 to 30 nM | 3 to 30 nM
2 | N[C@@H](Cc1ccc(Oc2ccnc3[nH]ccc23)cc1)C(=O)Nc1ccccc1 [Example 109, (S)-3-(4-((1H-pyrrolo[2,3-b]pyridin-4-yl)oxy)phenyl)-2-amino-N-phenylpropanamide] | 3 to 30 nM | 3 to 30 nM
3 | N[C@H](Cc1ccc(Oc2ccnc3[nH]ccc23)cc1)C(=O)NC1CCOCC1 [Example 100, (R)-3-(4-((1H-pyrrolo[2,3-b]pyridin-4-yl)oxy)phenyl)-2-amino-N-(tetrahydro-2H-pyran-4-yl)propanamide] | > 30 nM | > 30 nM
4 | Cc1c[nH]c2nccc(Oc3ccc(C[C@H](N)C(=O)N4CCN(Cc5ccccc5)CC4)cc3)c12 [Example 88, (S)-2-amino-1-(4-benzylpiperazin-1-yl)-3-(4-((3-methyl-1H-pyrrolo[2,3-b]pyridin-4-yl)oxy)phenyl)propan-1-one] | < 3 nM | < 3 nM
5 | N[C@@H](Cc1ccc(Oc2ccnc3[nH]cc(CO)c23)c(F)c1)C(=O)N1CCN(Cc2ccccn2)CC1 [Example 213, (S)-2-amino-3-(3-fluoro-4-((3-(hydroxymethyl)-1H-pyrrolo[2,3-b]pyridin-4-yl)oxy)phenyl)-1-(4-(pyridin-2-ylmethyl)piperazin-1-yl)propan-1-one] | < 3 nM | < 3 nM
6 | Cc1c[nH]c2nccc(Oc3ccc(C[C@H](N)C(=O)N4CCN(C(=O)C5CCN(C)CC5)CC4)cc3F)c12 [Example 171, (S)-2-amino-3-(3-fluoro-4-((3-methyl-1H-pyrrolo[2,3-b]pyridin-4-yl)oxy)phenyl)-1-(4-(1-methylpiperidine-4-carbonyl)piperazin-1-yl)propan-1-one] | 3 to 30 nM | 3 to 30 nM
7 | N[C@@H](Cc1ccc(Oc2ccnc3[nH]cc(-c4ccccc4)c23)cc1)C(=O)N1CCN(Cc2ccccc2)CC1 [Example 199, (S)-2-amino-1-(4-benzylpiperazin-1-yl)-3-(4-((3-phenyl-1H-pyrrolo[2,3-b]pyridin-4-yl)oxy)phenyl)propan-1-one] | < 3 nM | < 3 nM
8 | Cc1c[nH]c2nccc(Oc3ccc(C[C@H](N)C(=O)N4CCN(Cc5nccn5C)CC4)cc3F)c12 [Example 156, (S)-2-amino-3-(3-fluoro-4-((3-methyl-1H-pyrrolo[2,3-b]pyridin-4-yl)oxy)phenyl)-1-(4-((1-methyl-1H-imidazol-2-yl)methyl)piperazin-1-yl)propan-l-one] | < 3 nM | < 3 nM
9 | Cc1c[nH]c2nccc(Oc3ccc(CC(N)C(=O)N4CCC(c5ccncc5)C4)cc3F)c12 (racemic) [Example 66, 2-amino-3-(3-fluoro-4-((3-methyl-1H-pyrrolo[2,3-b]pyridin-4-yl)oxy)phenyl)-1-(3-(pyridin-4-yl)pyrrolidin-1-yl)propan-1-one] | < 3 nM | < 3 nM
10 | Cc1cccc(CN2CCN(C(=O)C(N)Cc3ccc(Oc4ccnc5[nH]cc(C)c45)c(F)c3)CC2)c1 (stereo not shown) [Example 73, 2-amino-3-(3-fluoro-4-((3-methyl-1H-pyrrolo[2,3-b]pyridin-4-yl)oxy)phenyl)-1-(4-(3-methylbenzyl)piperazin-1-yl)propan-1-one] | < 3 nM | < 3 nM
11 | Cc1c[nH]c2nccc(Oc3ccc(C[C@H](N)C(=O)N4CCN(C(=O)N(C)C)CC4)cc3F)c12 [Example 23, (S)-4-(2-amino-3-(3-fluoro-4-((3-methyl-1H-pyrrolo[2,3-b]pyridin-4-yl)oxy)phenyl)propanoyl)-N,N-dimethylpiperazine-1-carboxamide] | < 3 nM | < 3 nM

Next, values leading:

Row | Ki (Rho kinase 1 (ROCK-I)) | Ki (Rho kinase 2 (ROCK-II)) | Compound
12 | < 3 nM | < 3 nM | N#Cc1ccc(-c2c[nH]c3nccc(Oc4ccc(C[C@H](N)C(=O)N5CCN(Cc6ccccc6)CC5)cc4)c23)s1 [Example 195, (S)-5-(4-(4-(2-amino-3-(4-benzylpiperazin-1-yl)-3-oxopropyl)phenoxy)-1H-pyrrolo[2,3-b]pyridin-3-yl)thiophene-2-carbonitrile]
13 | < 3 nM | < 3 nM | N[C@@H](Cc1ccc(Oc2ccnc3[nH]cc(Br)c23)c(F)c1)C(=O)N1CCN(Cc2ccccc2)CC1 [Example 187, (S)-2-amino-1-(4-benzylpiperazin-1-yl)-3-(4-((3-bromo-1H-pyrrolo[2,3-b]pyridin-4-yl)oxy)-3-fluorophenyl)propan-1-one]
14 | < 3 nM | < 3 nM | CNC(=O)c1cccc(CN2CCN(C(=O)[C@@H](N)Cc3ccc(Oc4ccnc5[nH]cc(C)c45)c(F)c3)CC2)c1 [Example 165, (S)-3-((4-(2-amino-3-(3-fluoro-4-((3-methyl-1H-pyrrolo[2,3-b]pyridin-4-yl)oxy)phenyl)propanoyl)piperazin-1-yl)methyl)-N-methylbenzamide]
15 | < 3 nM | < 3 nM | N[C@@H](Cc1ccc(Oc2ccnc3[nH]cc(-c4cncs4)c23)cc1)C(=O)N1CCN(Cc2ccccc2)CC1 [Example 196, (S)-2-amino-1-(4-benzylpiperazin-1-yl)-3-(4-((3-(thiazol-5-yl)-1H-pyrrolo[2,3-b]pyridin-4-yl)oxy)phenyl)propan-1-one]
16 | < 3 nM | < 3 nM | Cc1c[nH]c2nccc(Oc3ccc(C[C@H](N)C(=O)N4CCc5ccccc5C4)cc3F)c12 [Example 10, (S)-2-amino-1-(3,4-dihydroisoquinolin-2(1H)-yl)-3-(3-fluoro-4-((3-methyl-1H-pyrrolo[2,3-b]pyridin-4-yl)oxy)phenyl)propan-1-one]
17 | < 3 nM | < 3 nM | N[C@@H](Cc1ccc(Oc2ccnc3[nH]cc(Br)c23)cc1)C(=O)NC1CCCCC1 [Example 188, (S)-2-amino-3-(4-((3-bromo-1H-pyrrolo[2,3-b]pyridin-4-yl)oxy)phenyl)-N-cyclohexylpropanamide]
18 | < 3 nM | < 3 nM | Cc1c[nH]c2nccc(Oc3ccc(CC(N)C(=O)NCCc4ccccc4)cc3F)c12 (stereo not shown) [Example 76, 2-amino-3-(3-fluoro-4-((3-methyl-1H-pyrrolo[2,3-b]pyridin-4-yl)oxy)phenyl)-N-phenethylpropanamide]
19 | < 3 nM | < 3 nM | Cc1c[nH]c2ncnc(Oc3ccc(C[C@H](N)C(=O)N4CCC(S(=O)(=O)c5ccccc5)CC4)cc3F)c12 [Example 127, (S)-2-amino-3-(3-fluoro-4-((5-methyl-7H-pyrrolo[2,3-d]pyrimidin-4-yl)oxy)phenyl)-1-(4-(phenylsulfonyl)piperidin-1-yl)propan-1-one]
20 | < 3 nM | < 3 nM | N[C@@H](Cc1ccc(Oc2ccnc3[nH]cc(-c4cccnc4)c23)cc1)C(=O)N1CCN(Cc2ccccc2)CC1 [Example 194, (S)-2-amino-1-(4-benzylpiperazin-1-yl)-3-(4-((3-(pyridin-3-yl)-1H-pyrrolo[2,3-b]pyridin-4-yl)oxy)phenyl)propan-1-one]
21 | < 3 nM | < 3 nM | Cc1c[nH]c2nccc(Oc3ccc(CC(N)C(=O)N4CCN(Cc5ccccc5)CC4)cc3F)c12 (single isomer, unassigned) [Example 132A, 2-amino-1-(4-benzylpiperazin-1-yl)-3-(3-fluoro-4-((3-methyl-1H-pyrrolo[2,3-b]pyridin-4-yl)oxy)phenyl)propan-1-one]
22 | < 3 nM | < 3 nM | COCCN1CCN(C(=O)C(N)Cc2ccc(Oc3ccnc4[nH]cc(C)c34)c(F)c2)CC1 (stereo not shown) [Example 19, 2-amino-3-(3-fluoro-4-((3-methyl-1H-pyrrolo[2,3-b]pyridin-4-yl)oxy)phenyl)-1-(4-(2-methoxyethyl)piperazin-1-yl)propan-1-one]
23 | < 3 nM | < 3 nM | Cc1c[nH]c2nccc(Oc3ccc(C[C@H](N)C(=O)N4CCN(Cc5cnn(C)c5)CC4)cc3F)c12 [Example 163, (S)-2-amino-3-(3-fluoro-4-((3-methyl-1H-pyrrolo[2,3-b]pyridin-4-yl)oxy)phenyl)-1-(4-((1-methyl-1H-pyrazol-4-yl)methyl)piperazin-1-yl)propan-1-one]
24 | < 3 nM | < 3 nM | N[C@@H](Cc1ccc(Oc2ccnc3[nH]cc(I)c23)cc1)C(=O)NC1CCCCC1 [Example 190, (S)-2-amino-N-cyclohexyl-3-(4-((3-iodo-1H-pyrrolo[2,3-b]pyridin-4-yl)oxy)phenyl)propanamide]
25 | < 3 nM | < 3 nM | N[C@@H](Cc1ccc(Oc2ccnc3[nH]cc(CCO)c23)cc1)C(=O)N1CCN(Cc2ccccc2)CC1 [Example 216, (S)-2-amino-1-(4-benzylpiperazin-1-yl)-3-(4-((3-(2-hydroxyethyl)-1H-pyrrolo[2,3-b]pyridin-4-yl)oxy)phenyl)propan-1-one]
26 | < 3 nM | < 3 nM | Cc1c[nH]c2nccc(Oc3ccc(CC(N)C(=O)N4CCn5cncc5C4)cc3F)c12 (stereo not shown) [Example 81, 2-amino-1-(5,6-dihydroimidazo[1,5-a]pyrazin-7(8H)-yl)-3-(3-fluoro-4-((3-methyl-1H-pyrrolo[2,3-b]pyridin-4-yl)oxy)phenyl)propan-1-one]
